Source: ChEMBL document CHEMBL1817600, “Design, synthesis, and biological evaluation of imidazoline derivatives as p53-MDM2 binding inhibitors” (Bioorg Med Chem, 2011)

The molecules below were run on A549 (assay: Cell cycle arrest in human A549 cells expressing wild type p53 assessed as accumulation at S phase at 10 uM after 72 hrs using propidium iodide staining by flow cytometric analysis (reference value: 19.23%)). Conditions: not given; call rule not given here.
Format: functional

SMILES	Activity
COc1ccc(C2=NC(c3ccc(Cl)cc3)C(c3ccc(Cl)cc3)N2C(=O)N2CCN(C(C)=O)CC2)c(OC(C)C)c1 (configuration not stated)	13.78%
COc1ccc(C2=NC(c3ccc(Cl)cc3)C(c3ccc(Cl)cc3)N2C(=O)OCCNC(C)=O)c(OC(C)C)c1 (configuration not stated)	7.4%

Each molecule was assayed on A549 (assay: Cell cycle arrest in human A549 cells expressing wild type p53 assessed as accumulation at G2/M phase at 10 uM after 72 hrs using propidium iodide staining by flow cytometric analysis (reference value: 7.49%)). Conditions: not given.
Format: functional

SMILES	Activity
COc1ccc(C2=NC(c3ccc(Cl)cc3)C(c3ccc(Cl)cc3)N2C(=O)N2CCN(C(C)=O)CC2)c(OC(C)C)c1 (configuration not stated)	19.27%
COc1ccc(C2=NC(c3ccc(Cl)cc3)C(c3ccc(Cl)cc3)N2C(=O)OCCNC(C)=O)c(OC(C)C)c1 (configuration not stated)	30.93%

These molecules were tested on KB (assay: Antiproliferative activity against human KB cells expressing p53 mutant after 72 hrs by MTT assay). Conditions: not given.
Format: functional, cell-based

SMILES	IC50
COc1ccc(C2=NC(c3ccc(Cl)cc3)C(c3ccc(Cl)cc3)N2C(=O)N2CCN(C(C)=O)CC2)c(OC(C)C)c1 (configuration not stated)	35.2 µM
COc1ccc(C2=NC(c3ccc(Cl)cc3)C(c3ccc(Cl)cc3)N2C(=O)OCCNC(C)=O)c(OC(C)C)c1 (configuration not stated)	3.6 µM
COc1ccc(C2=NC(c3ccc(Cl)cc3)C(c3ccc(Cl)cc3)N2C(=O)OCCN(C)C)c(OC(C)C)c1 (configuration not stated)	8.27 µM
COc1ccc(C2=NC(c3ccc(Cl)cc3)C(c3ccc(Cl)cc3)N2C(=O)NCC(=O)N2CCOCC2)c(OC(C)C)c1 (configuration not stated)	7.39 µM
COc1ccc(C2=NC(c3ccc(Cl)cc3)C(c3ccc(Cl)cc3)N2C(=O)CCN2CCN(C)CC2)c(OC(C)C)c1 (configuration not stated)	5.81 µM

The molecules below were run on PC-3 (assay: Antiproliferative activity against p53 deficient human PC3 cells after 72 hrs by MTT assay). Conditions: PC-3, 72 h.

SMILES	IC50
COc1ccc(C2=NC(c3ccc(Cl)cc3)C(c3ccc(Cl)cc3)N2C(=O)N2CCN(C(C)=O)CC2)c(OC(C)C)c1 (configuration not stated)	29.2 µM
COc1ccc(C2=NC(c3ccc(Cl)cc3)C(c3ccc(Cl)cc3)N2C(=O)OCCNC(C)=O)c(OC(C)C)c1 (configuration not stated)	33.1 µM
COc1ccc(C2=NC(c3ccc(Cl)cc3)C(c3ccc(Cl)cc3)N2C(=O)OCCN(C)C)c(OC(C)C)c1 (configuration not stated)	11 µM
COc1ccc(C2=NC(c3ccc(Cl)cc3)C(c3ccc(Cl)cc3)N2C(=O)NCC(=O)N2CCOCC2)c(OC(C)C)c1 (configuration not stated)	14.3 µM
COc1ccc(C2=NC(c3ccc(Cl)cc3)C(c3ccc(Cl)cc3)N2C(=O)CCN2CCN(C)CC2)c(OC(C)C)c1 (configuration not stated)	8.44 µM
CCN(CC)CCC(=O)N1C(c2ccc(OC)cc2OC(C)C)=NC(c2ccc(Cl)cc2)C1c1ccc(Cl)cc1 (configuration not stated)	3.32 µM
COc1ccc(C2=NC(c3ccc(Cl)cc3)C(c3ccc(Cl)cc3)N2C(=O)CCN2CCOCC2)c(OC(C)C)c1 (configuration not stated)	2.74 µM

These molecules were tested on A549 (assay: Antiproliferative activity against human A549 cells expressing wild type p53 after 72 hrs by MTT assay). Conditions: A549, 72 h.

SMILES	IC50
COc1ccc(C2=NC(c3ccc(Cl)cc3)C(c3ccc(Cl)cc3)N2C(=O)N2CCN(C(C)=O)CC2)c(OC(C)C)c1 (configuration not stated)	2.33 µM
COc1ccc(C2=NC(c3ccc(Cl)cc3)C(c3ccc(Cl)cc3)N2C(=O)OCCNC(C)=O)c(OC(C)C)c1 (configuration not stated)	9.1 µM
COc1ccc(C2=NC(c3ccc(Cl)cc3)C(c3ccc(Cl)cc3)N2C(=O)OCCN(C)C)c(OC(C)C)c1 (configuration not stated)	10.8 µM
COc1ccc(C2=NC(c3ccc(Cl)cc3)C(c3ccc(Cl)cc3)N2C(=O)NCC(=O)N2CCOCC2)c(OC(C)C)c1 (configuration not stated)	8.29 µM
COc1ccc(C2=NC(c3ccc(Cl)cc3)C(c3ccc(Cl)cc3)N2C(=O)CCN2CCN(C)CC2)c(OC(C)C)c1 (configuration not stated)	3.19 µM
CCN(CC)CCC(=O)N1C(c2ccc(OC)cc2OC(C)C)=NC(c2ccc(Cl)cc2)C1c1ccc(Cl)cc1 (configuration not stated)	3.82 µM
COc1ccc(C2=NC(c3ccc(Cl)cc3)C(c3ccc(Cl)cc3)N2C(=O)CCN2CCOCC2)c(OC(C)C)c1 (configuration not stated)	3.82 µM

These molecules were tested on HCT-116 (assay: Antiproliferative activity against human HCT116 cells expressing wild type p53 after 72 hrs by MTT assay). Conditions: Homo sapiens, HCT-116, 72 h.

SMILES	IC50
COc1ccc(C2=NC(c3ccc(Cl)cc3)C(c3ccc(Cl)cc3)N2C(=O)N2CCN(C(C)=O)CC2)c(OC(C)C)c1 (configuration not stated)	4.58 µM
COc1ccc(C2=NC(c3ccc(Cl)cc3)C(c3ccc(Cl)cc3)N2C(=O)OCCNC(C)=O)c(OC(C)C)c1 (configuration not stated)	5.81 µM
COc1ccc(C2=NC(c3ccc(Cl)cc3)C(c3ccc(Cl)cc3)N2C(=O)NCC(=O)N2CCOCC2)c(OC(C)C)c1 (configuration not stated)	10.9 µM
COc1ccc(C2=NC(c3ccc(Cl)cc3)C(c3ccc(Cl)cc3)N2C(=O)CCN2CCN(C)CC2)c(OC(C)C)c1 (configuration not stated)	5.4 µM
CCN(CC)CCC(=O)N1C(c2ccc(OC)cc2OC(C)C)=NC(c2ccc(Cl)cc2)C1c1ccc(Cl)cc1 (configuration not stated)	3.73 µM
COc1ccc(C2=NC(c3ccc(Cl)cc3)C(c3ccc(Cl)cc3)N2C(=O)CCN2CCOCC2)c(OC(C)C)c1 (configuration not stated)	7.57 µM

Same assay, conditions: hct-116

SMILES	IC50
COc1ccc(C2=NC(c3ccc(Cl)cc3)C(c3ccc(Cl)cc3)N2C(=O)OCCN(C)C)c(OC(C)C)c1 (configuration not stated)	Not Active

The molecules below were run on A549 (assay: Cell cycle arrest in human A549 cells expressing wild type p53 assessed as accumulation at G0/G1 phase at 10 uM after 72 hrs using propidium iodide staining by flow cytometric analysis (reference value: 73.28%)). Conditions: not given.
Format: functional

SMILES	Activity
COc1ccc(C2=NC(c3ccc(Cl)cc3)C(c3ccc(Cl)cc3)N2C(=O)N2CCN(C(C)=O)CC2)c(OC(C)C)c1 (configuration not stated)	66.95%
COc1ccc(C2=NC(c3ccc(Cl)cc3)C(c3ccc(Cl)cc3)N2C(=O)OCCNC(C)=O)c(OC(C)C)c1 (configuration not stated)	61.67%

What follows are molecules tested against Tumour suppressor p53/oncoprotein Mdm2 (Homo sapiens, UniProt P04637+Q00987) (assay: (§1) Inhibition of p53-MDM2 expressed in Escherichia coli BL-21 (DE3) after 1 hr by fluorescence polarization competitive binding assay). Conditions: not given.
Chain of Tumour suppressor p53/oncoprotein Mdm2 (Homo sapiens, UniProt P04637+Q00987) (P04637 whole entry): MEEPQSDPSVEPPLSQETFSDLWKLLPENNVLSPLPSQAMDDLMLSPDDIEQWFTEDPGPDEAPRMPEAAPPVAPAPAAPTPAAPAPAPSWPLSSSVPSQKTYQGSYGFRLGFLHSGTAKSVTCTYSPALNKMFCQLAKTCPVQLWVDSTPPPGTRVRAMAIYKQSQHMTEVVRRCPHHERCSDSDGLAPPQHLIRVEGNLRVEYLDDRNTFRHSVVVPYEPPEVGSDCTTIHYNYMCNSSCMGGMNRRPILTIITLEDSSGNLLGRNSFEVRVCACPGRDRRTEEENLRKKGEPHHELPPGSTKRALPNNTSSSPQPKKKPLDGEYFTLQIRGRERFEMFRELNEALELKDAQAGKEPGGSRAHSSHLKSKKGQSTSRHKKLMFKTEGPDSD
Chain of Tumour suppressor p53/oncoprotein Mdm2 (Homo sapiens, UniProt P04637+Q00987) (Q00987 whole entry): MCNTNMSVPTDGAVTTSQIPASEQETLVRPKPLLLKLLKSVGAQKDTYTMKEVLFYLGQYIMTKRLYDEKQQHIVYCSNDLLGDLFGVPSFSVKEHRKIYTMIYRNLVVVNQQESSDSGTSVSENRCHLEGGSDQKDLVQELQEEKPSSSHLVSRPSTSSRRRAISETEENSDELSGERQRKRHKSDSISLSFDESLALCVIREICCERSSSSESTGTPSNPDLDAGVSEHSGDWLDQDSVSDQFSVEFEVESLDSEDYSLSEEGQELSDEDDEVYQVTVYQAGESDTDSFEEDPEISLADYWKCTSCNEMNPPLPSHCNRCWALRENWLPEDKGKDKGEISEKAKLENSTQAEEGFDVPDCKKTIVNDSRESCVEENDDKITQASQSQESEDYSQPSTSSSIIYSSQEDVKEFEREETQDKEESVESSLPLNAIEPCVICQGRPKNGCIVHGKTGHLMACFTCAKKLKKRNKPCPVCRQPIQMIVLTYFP

SMILES	Ki
COc1ccc(C2=NC(c3ccc(C(F)(F)F)cc3)C(c3ccc(C(F)(F)F)cc3)N2C(=O)N2CCN(C(C)=O)CC2)c(OC(C)C)c1 (configuration not stated)	Not Active
CCC1=NC(c2ccc(Cl)cc2)C(c2ccc(Cl)cc2)N1C(=O)N1CCN(C)CC1 (configuration not stated)	Not Active
CCC1=NC(c2ccc(Cl)cc2)C(c2ccc(Cl)cc2)N1C(=O)N(CC)CC (configuration not stated)	Not Active
CCC1=NC(c2ccc(Cl)cc2)C(c2ccc(Cl)cc2)N1C(=O)Nc1ccc(N2CCCC2)cc1 (configuration not stated)	Not Active
CCC1=NC(c2ccc(Cl)cc2)C(c2ccc(Cl)cc2)N1C(=O)NCC(=O)N1CCOCC1 (configuration not stated)	Not Active
COc1ccc(C2=NC(c3ccccc3)C(c3ccccc3)N2C(=O)CN2CCN(C)CC2)c(OC(C)C)c1 (configuration not stated)	Not Active
CCN(CC)CC(=O)N1C(c2ccc(OC)cc2OC(C)C)=NC(c2ccccc2)C1c1ccccc1 (configuration not stated)	Not Active
CCN(CC)CC(=O)N1C(c2ccc(OC)cc2OC(C)C)=NC(c2ccc(Cl)cc2)C1c1ccc(Cl)cc1 (configuration not stated)	Not Active
COc1ccc(C2=NC(c3ccc(C(F)(F)F)cc3)C(c3ccc(C(F)(F)F)cc3)N2C(=O)CN2CCN(C(C)=O)CC2)c(OC(C)C)c1 (configuration not stated)	Not Active

These molecules were tested against Tumour suppressor p53/oncoprotein Mdm2 (Homo sapiens, UniProt Q00987) (assay: as §1). Conditions: not given.
Chain of Tumour suppressor p53/oncoprotein Mdm2 (Homo sapiens, UniProt Q00987) (P04637 whole entry): as the sequence (P04637 whole entry) above
Chain of Tumour suppressor p53/oncoprotein Mdm2 (Homo sapiens, UniProt Q00987) (Q00987 whole entry): as the sequence (Q00987 whole entry) above

SMILES	Ki
COCCOC(=O)N1C(c2ccc(OC)cc2OC(C)C)=NC(c2ccc(Cl)cc2)C1c1ccc(Cl)cc1 (configuration not stated)	2.3 µM
COc1ccc(C2=NC(c3ccc(Cl)cc3)C(c3ccc(Cl)cc3)N2C(=O)OCc2ccccc2)c(OC(C)C)c1 (configuration not stated)	32.4 µM
COc1ccc(C2=NC(c3ccc(Cl)cc3)C(c3ccc(Cl)cc3)N2C(=O)OCCNC(C)=O)c(OC(C)C)c1 (configuration not stated)	0.6 µM
CCOCCOC(=O)N1C(c2ccc(OC)cc2OC(C)C)=NC(c2ccc(Cl)cc2)C1c1ccc(Cl)cc1 (configuration not stated)	1.38 µM
COc1ccc(C2=NC(c3ccc(Cl)cc3)C(c3ccc(Cl)cc3)N2C(=O)OCCN(C)C)c(OC(C)C)c1 (configuration not stated)	0.57 µM
CCOC(=O)CN(C)C(=O)N1C(c2ccc(OC)cc2OC(C)C)=NC(c2ccc(Cl)cc2)C1c1ccc(Cl)cc1 (configuration not stated)	1.59 µM
COc1ccc(C2=NC(c3ccc(Cl)cc3)C(c3ccc(Cl)cc3)N2C(=O)N(C)C)c(OC(C)C)c1 (configuration not stated)	3.32 µM
COc1ccc(C2=NC(c3ccc(Cl)cc3)C(c3ccc(Cl)cc3)N2C(=O)NCC(=O)N2CCOCC2)c(OC(C)C)c1 (configuration not stated)	0.48 µM
COc1ccc(C2=NC(c3ccc(Cl)cc3)C(c3ccc(Cl)cc3)N2C(=O)N2CCOCC2)c(OC(C)C)c1 (configuration not stated)	4.07 µM
COc1ccc(C2=NC(c3ccc(Cl)cc3)C(c3ccc(Cl)cc3)N2C(=O)N2CCC(C(=O)O)CC2)c(OC(C)C)c1 (configuration not stated)	8.77 µM
COc1ccc(C2=NC(c3ccc(Cl)cc3)C(c3ccc(Cl)cc3)N2C(=O)CN2CCOCC2)c(OC(C)C)c1 (configuration not stated)	2.64 µM
COc1ccc(C2=NC(c3ccc(Cl)cc3)C(c3ccc(Cl)cc3)N2C(=O)CN2CCN(C)CC2)c(OC(C)C)c1 (configuration not stated)	25.8 µM
COc1ccc(C2=NC(c3ccc(Cl)cc3)C(c3ccc(Cl)cc3)N2C(=O)CN2CCCCC2)c(OC(C)C)c1 (configuration not stated)	82.1 µM
COc1ccc(C2=NC(c3ccc(Cl)cc3)C(c3ccc(Cl)cc3)N2C(=O)CCN2CCN(C)CC2)c(OC(C)C)c1 (configuration not stated)	0.9 µM
CCN(CC)CCC(=O)N1C(c2ccc(OC)cc2OC(C)C)=NC(c2ccc(Cl)cc2)C1c1ccc(Cl)cc1 (configuration not stated)	1.22 µM
COc1ccc(C2=NC(c3ccc(Cl)cc3)C(c3ccc(Cl)cc3)N2C(=O)CCN2CCOCC2)c(OC(C)C)c1 (configuration not stated)	1.3 µM
